According to BindingDB's records for doi:10.7270/Q2NV9GNV (Vanderbilt Screening Center for GPCRs, Ion Channels and …, 2009):

Target: T1, Muscarinic acetylcholine receptor M4 (Rattus norvegicus, UniProt P08485)
T1 sequence (P08485 whole entry): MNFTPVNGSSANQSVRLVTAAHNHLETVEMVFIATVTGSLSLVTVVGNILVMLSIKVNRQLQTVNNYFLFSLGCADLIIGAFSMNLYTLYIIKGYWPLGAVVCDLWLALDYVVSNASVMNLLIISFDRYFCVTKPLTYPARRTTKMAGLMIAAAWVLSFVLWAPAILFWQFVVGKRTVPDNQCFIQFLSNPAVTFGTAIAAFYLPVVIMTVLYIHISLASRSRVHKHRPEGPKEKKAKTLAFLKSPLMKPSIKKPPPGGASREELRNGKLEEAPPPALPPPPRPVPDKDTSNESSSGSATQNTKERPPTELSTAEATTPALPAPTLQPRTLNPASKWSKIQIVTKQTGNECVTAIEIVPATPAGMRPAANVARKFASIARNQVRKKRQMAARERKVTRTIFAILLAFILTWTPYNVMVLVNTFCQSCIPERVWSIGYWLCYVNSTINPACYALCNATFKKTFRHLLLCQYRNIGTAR
Assay: effects on NMS binding at M4, late-stage follow-up, mechanism study for M4 PAM project, biochemical, NMS competition, rat M4 (AID 1939)
Details: inactive by the depositor's call

Compound `Cc1cc(C)c2c(N)c(C(=O)NCc3ccc4c(c3)OCO4)sc2n1` [3-amino-4,6-dimethyl-N-piperonyl-thieno[2,3-b]pyridine-2-carboxamide] has a Ki of 46.8 nM.
